Where two headings read alike, the source gives them in different places.
Key:
Format in all cases: cell-based
[1] = molecular target: T1, NR2F6 (Homo sapiens, UniProt P10588); assay: NR2F6 agonist screening, Firefly signal cmpd/DMSO
T1 construct: expressed in transfected cells; also transient transfection
T1 sequence (P10588 1-404): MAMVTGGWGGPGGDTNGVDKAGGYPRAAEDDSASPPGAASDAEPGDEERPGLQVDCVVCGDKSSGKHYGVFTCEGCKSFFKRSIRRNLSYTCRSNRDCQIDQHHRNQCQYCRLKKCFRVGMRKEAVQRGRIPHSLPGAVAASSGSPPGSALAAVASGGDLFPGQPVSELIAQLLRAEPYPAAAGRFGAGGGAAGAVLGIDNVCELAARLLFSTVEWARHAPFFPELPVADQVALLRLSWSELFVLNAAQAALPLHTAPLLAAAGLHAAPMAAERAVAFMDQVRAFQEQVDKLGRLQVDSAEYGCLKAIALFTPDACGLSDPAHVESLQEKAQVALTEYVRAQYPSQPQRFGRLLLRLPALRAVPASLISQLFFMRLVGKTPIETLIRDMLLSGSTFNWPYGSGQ

[2] = tested on: Renilla; assay: Renilla signal in NR2F6 agonist screening, cmpd/DMSO; conditions: Renilla, F4
[3] = tested on: HEK293 pGL4; assay: Firefly_pGL signal, cmpd/DMSO (pGL4 control cells); conditions: Homo sapiens
[4] = molecular target: T2, NR2F6 LBD (Homo sapiens, UniProt P10588); assay: NR2F6 LBD transient transfection; conditions: LBD
T2 construct: expressed in transfected cells
T2 sequence (P10588 165-393 limits assumed): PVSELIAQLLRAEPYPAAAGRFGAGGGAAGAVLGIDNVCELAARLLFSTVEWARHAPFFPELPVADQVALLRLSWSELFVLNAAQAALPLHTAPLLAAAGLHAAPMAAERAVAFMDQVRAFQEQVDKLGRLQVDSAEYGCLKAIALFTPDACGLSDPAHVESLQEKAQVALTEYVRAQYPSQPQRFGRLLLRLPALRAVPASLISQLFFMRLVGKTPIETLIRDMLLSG
How it was run: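 LBD-transfected cells treated at 40, 10, 2 and 0.5 μM (4 replicates); cytotoxicity measured in parallel, normalized to DMSO (0%) and zero signal (100%). Higher concentrations excluded where signal loss reflected toxicity.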

[5] = read-out: Renilla, F4, cmpd/DMSO (mean)
[6] = 1% FBS, read-out: Renilla, F4, 1% FBS, cmpd/DMSO (mean)
[7] = 10% FBS, read-out: Renilla, F4, 10% FBS, cmpd/DMSO (mean)

Firefly F4, cmpd/DMSO (mean) ([1]; 0.5 uM): 1.1
Firefly F4, cmpd/DMSO (mean) ([1]; 2 uM): 2.4
Firefly F4, cmpd/DMSO (mean) ([1]; 10 uM): 5.5
Firefly F4, cmpd/DMSO (mean) ([1]; 40 uM): 0.9
F4, Firefly/Renilla for S/B(F4) > 3 ([1]; 1% FBS, 10 uM): 2.5
Firefly, F4/pGL4 for S/B(F4) > 3 ([1]; 1% FBS, 10 uM): 1.9
F4, Firefly/Renilla for S/B(F4) > 3 ([1]; 10% FBS, 10 uM): 4.3
Firefly, F4/pGL4 for S/B(F4) > 3 ([1]; 10% FBS, 10 uM): 3.4
F4, Firefly/Renilla for S/B(F4) > 3 ([1]; 10% FBS, 40 uM): 1.4
Firefly, F4/pGL4 for S/B(F4) > 3 ([1]; 10% FBS, 40 uM): 2.1
Firefly, F4, 1% FBS, cmpd/DMSO (mean) ([1]; 1% FBS, 0.5 uM): 1.5
Firefly, F4, 1% FBS, cmpd/DMSO (mean) ([1]; 1% FBS, 2 uM): 1.7
Firefly, F4, 1% FBS, cmpd/DMSO (mean) ([1]; 1% FBS, 10 uM): 4.9
Firefly, F4, 1% FBS, cmpd/DMSO (mean) ([1]; 1% FBS, 40 uM): 0.3
Firefly, F4, 10% FBS, cmpd/DMSO (mean) ([1]; 10% FBS, 0.5 uM): 1.0
Firefly, F4, 10% FBS, cmpd/DMSO (mean) ([1]; 10% FBS, 2 uM): 1.5
Firefly, F4, 10% FBS, cmpd/DMSO (mean) ([1]; 10% FBS, 10 uM): 8.9
Firefly, F4, 10% FBS, cmpd/DMSO (mean) ([1]; 10% FBS, 40 uM): 3.6
Activity, cmpd/DMSO ([1]; Table 31): 5.7
Firefly LBD, cmpd/DMSO (mean) ([4]; 0.5 uM): 1.2
Firefly LBD, cmpd/DMSO (mean) ([4]; 2 uM): 1.8
Firefly LBD, cmpd/DMSO (mean) ([4]; 10 uM): 3.8
Firefly LBD, cmpd/DMSO (mean) ([4]; 40 uM): 0.7
Compound: O=S1(=O)C[C@H](N2CCCCC2)[C@@H](S(=O)(=O)c2cccs2)C1 [Compound D105]
fold induction at 0.5 µM [2, 5]: 1.1
fold induction at 2 µM [2, 5]: 1.2
fold induction at 10 µM [2, 5]: 1.7
fold induction at 40 µM [2, 5]: 0.7
fold induction at 0.5 µM [2, 6]: 1.1
fold induction at 2 µM [2, 6]: 1.2
fold induction at 10 µM [2, 6]: 2
fold induction at 40 µM [2, 6]: 1.6
fold induction at 0.5 µM [2, 7]: 1.1
fold induction at 2 µM [2, 7]: 1.2
fold induction at 10 µM [2, 7]: 2.1
fold induction at 40 µM [2, 7]: 2.6
fold induction at 0.5 µM ([3]; HEK293, 0.5 uM, pGL4, read-out: Firefly pGL4, cmpd/DMSO (mean)): 1.2
fold induction at 2 µM ([3]; HEK293, 2 uM, pGL4, read-out: Firefly pGL4, cmpd/DMSO (mean)): 1.9
fold induction at 10 µM ([3]; HEK293, 10 uM, pGL4, read-out: Firefly pGL4, cmpd/DMSO (mean)): 3.8
fold induction at 40 µM ([3]; HEK293, 40 uM, pGL4, read-out: Firefly pGL4, cmpd/DMSO (mean)): 0.7
fold induction at 0.5 µM ([3]; HEK293, pGL4, 1% FBS, 0.5 uM, read-out: Firefly, pGL4, 1% FBS, cmpd/DMSO (mean)): 1.4
fold induction at 2 µM ([3]; HEK293, pGL4, 1% FBS, 2 uM, read-out: Firefly, pGL4, 1% FBS, cmpd/DMSO (mean)): 1.2
fold induction at 10 µM ([3]; HEK293, pGL4, 1% FBS, 10 uM, read-out: Firefly, pGL4, 1% FBS, cmpd/DMSO (mean)): 2.6
fold induction at 40 µM ([3]; HEK293, pGL4, 1% FBS, 40 uM, read-out: Firefly, pGL4, 1% FBS, cmpd/DMSO (mean)): 1.1
fold induction at 0.5 µM ([3]; HEK293, pGL4, 10% FBS, 0.5 uM, read-out: Firefly, pGL4, 10% FBS, cmpd/DMSO (mean)): 1.3
fold induction at 2 µM ([3]; HEK293, pGL4, 10% FBS, 2 uM, read-out: Firefly, pGL4, 10% FBS, cmpd/DMSO (mean)): 1.6
fold induction at 10 µM ([3]; HEK293, pGL4, 10% FBS, 10 uM, read-out: Firefly, pGL4, 10% FBS, cmpd/DMSO (mean)): 2.6
fold induction at 40 µM ([3]; HEK293, pGL4, 10% FBS, 40 uM, read-out: Firefly, pGL4, 10% FBS, cmpd/DMSO (mean)): 1.7

— patent US11377442B2, “Small molecule agonists and antagonists of NR2F6 activity” (ZANDER THERAPEUTICS, INC., priority 2016, dated 2022)
